Like-named read-outs stand apart in the source and are kept apart here.
How the values were obtained:
[1] = tested on: human bronchial smooth muscle cells; experiment: Histamine-induced depolarization of human bronchial smooth muscle cells (FLIPR membrane potential); type: cell-based; conditions: read-out: Histamine Depolarization of ASM Cells (IC50)
Experimental: Cultured human bronchial smooth muscle cells (BSMC) from Lonza were resuspended in Smooth Muscle Growth Medium-2 (SmGM-2; Lonza) at a concentration of 4 × 10^5 cells per ml. One hundred microliters of cells per well were plated in a black wall clear bottom polystyrene 96-well tissue culture plate and incubated in a 37°C humidified incubator with 5% CO2 overnight. Cells were serum starved by removing the SmGM-2 and replaced with one hundred microliters per well of Smooth Muscle Cell Basal Medium 2 (SmBM-2), phenol red-free (PromoCell), and incubated in a 37°C humidified incubator with 5% CO2 for 24 h. SmBM-2 was replaced with 100 microliters of fresh SmBM-2. Compounds were dissolved in 100% DMSO and serially diluted ½ log in a polypropylene 96-well microtiter plate (drug plate). Columns 6 and 12 were reserved as controls (HI control and LO control respectively) and contained only DMSO. Serially diluted compounds were diluted in SmBM-2 to 10X the final concentration. Twenty-five microliters of 10X compound titrations, and one hundred microliters of Blue dye-loading buffer (FLIPR Membrane Potential Assay Kit; Molecular Devices) were added to the cells. Cells were pre-incubated at room temperature with compound for 0.5 h. Five micromolar (10X) histamine was prepared in SmBM-2. Using the FLIPR-Tetra (Molecular Devices), three measurements of the baseline fluorescence were taken over the span of 1 min. Twenty-five microliters per well of 10X histamine were added to the first 11 columns of the plate containing the compound treated cells. Twenty-five microliters of SmBM-2 were added to column 12 for the LO control. Fifty-five fluorescence measurements were taken over the span of 14 min. The area under the curve (AUC) from the fluorescence kinetic traces (normalized to baseline fluorescence) were calculated. The amount of fluorescence in the presence of compound compared with that in the presence of DMSO vehicle alone (HI control) was calculated using the formula: % control (POC) = (compd – average LO)/(average HI – average LO)^∗100.

mouse tracheal rings = experiment: Wire myograph bronchodilation of carbachol pre-contracted mouse tracheal rings; conditions: for EC50: Mus musculus; for time to steady-state relaxation of mouse tracheal rings: EC75 carbachol; for onset of action: bronchodilating mouse airways, summary
Experimental: The trachea from C57 BL/6 mice was dissected and collected in PBS with Mg^2+ and Ca^2+. After further trimming, two 2 mm sections (rings) per trachea were then placed in DMEM media containing PSG/HEPES/AA/NaPyr for 1 h and used immediately or maintained overnight at 37°C in a humidified incubator with 5% CO2. Rings were then mounted into chambers of DMT wire myograph containing L-shaped mounting pins with 2–3 mN of force applied to secure rings on the pins and the rings were allowed to equilibrate for 25–30 min in a physiological saline buffer (PSS, 130 mM NaCl, 4.7 mM KCl, 1.2 mM MgS04, 14.9 mM NaHCO3, 1.2 mM KH2PO4, 0.026 mM EDTA, 1.6 mM CaCl2, 5.5 mM Dextrose). Throughout the experiment, rings were maintained at physiological temperature and gas conditions by heating buffer reservoir and chamber to 37°C and bubbling a 95% O2, 5% CO2 gas mixture into chamber.
After equilibration, a standard tissue “Wake-Up” procedure was applied by altering tension and then treatment with elevated potassium as follows: 3 mN tension was applied for 5–10 min, then another 2–3 mN tension to total of 5.5 mN and then to 7–8 mN for another 5 min; the tissue pre-tension was then set to 5 mN and allowed to equilibrate for 5–10 min followed by the removal of the PSS buffer and addition of KPSS (60 mM KCl, 74.7 mM NaCl in PSS solution), with force changes monitored until they reached a plateau. The tissue was then washed four times with PSS over 5 min and the KPSS treatment and washes repeated; the tissue was then allowed to sit in PSS for 10 min and the tension was set to 5 mN.
The tissue was then washed three times and then three times more with PSS for 5 min until tension returned to baseline.
Only tissue that passed the qualification tests above advanced to studies on test article compounds. […] For standard ascending dose-response studies on TMEM16A antagonists, an EC75 or EC95 concentration of CCh was used to pre-contract tracheal rings.

[2] = carbachol pre-contracted, values marked † (footnote not given), read-out: Bronchodilation of Mouse Tracheal Rings (EC50)
[3] = pre-contracted with EC75 carbachol, average, read-out: EC50 relaxation of mouse tracheal rings
[4] = carbachol pre-contracted, values marked § (footnote not given), read-out: Bronchodilation of Mouse Tracheal Rings (EC50)

Row | Compound | IC50 [1] [nM] | EC50 (mouse tracheal rings; [2]) [nM] | also measured
1 | CCc1c(C)nc(SCC(=O)Nc2nc(-c3ccc(OC)cc3)cs2)[nH]c1=O [T16Ainh-A01] | > 30000 | > 50000 | 
2 | CC(C)(C)C1CCc2c(sc(NC(=O)c3ccco3)c2C(=O)O)C1 (stereo not shown) [CaCCinh-A01] | 4760 ± 1230 | 13500 | 
3 | O=C(Nc1ccc([N+](=O)[O-])cc1Cl)c1cc(Cl)ccc1O [Niclosamide] | 389 ± 478 | 379 ± 82 | time to steady-state relaxation of mouse tracheal rings (mouse tracheal rings; 1 μM): 17 to 35 min; EC50 (mouse tracheal rings; [3]): 365 nM; onset of action (mouse tracheal rings): 17 to 60 min
4 | O=C(O)c1cccnc1Nc1cccc(C(F)(F)F)c1 [Niflumic Acid] | 6280 ± 1590 | 51200 | 
5 | O=C(Nc1ccc([N+](=O)[O-])cc1)c1cc(Cl)ccc1O [Cpd 2] | 44 | 483 | EC50 (mouse tracheal rings; [4]): 585 nM
6 | O=C(Nc1ccc(Cl)cc1)c1cc(Cl)ccc1O [Cpd 5] | 71 ± 20 | 1120 | 
7 | Oc1ccc(Cl)cc1Cc1cc(Cl)ccc1O [Dichlorophen] | 938 ± 360 | 2010 | 
8 | O=C(Nc1ncc([N+](=O)[O-])s1)c1cccs1 [NTTP] | 25200 ± 5440 |  | EC50 (mouse tracheal rings; [4]): 7610 nM
9 | O=C(Nc1ncc([N+](=O)[O-])s1)c1ccccc1O [Tizoxanide] |  | 3900 | 
10 | COc1cc(Nc2ccc([N+](=O)[O-])cc2C(=O)O)cc2ccccc12 [MONNA] | 201 ± 162 | 3020 | 
11 | CCc1oc2ccccc2c1C(=O)c1cc(Br)c(O)c(Br)c1 [Benzbromarone] | 208 ± 248 | 1280 ± 211 | time to steady-state relaxation of mouse tracheal rings (mouse tracheal rings; 1 μM): 40 to 60 min; EC50 (mouse tracheal rings; pre-contracted with EC75 carbachol, read-out: EC50 relaxation of mouse tracheal rings): 1280 nM; onset of action (mouse tracheal rings): 17 to 60 min
12 | COc1cc([N+](=O)[O-])ccc1NC(=O)c1cc(Cl)c2ccccc2c1O [Cpd 4] | 178 ± 7 | 467 ± 167 | time to steady-state relaxation of mouse tracheal rings (mouse tracheal rings; 316 nM): 25 to 45 min; EC50 (mouse tracheal rings; [3]): ~332 nM; onset of action (mouse tracheal rings): 17 to 60 min
13 | O=C(Nc1ccc([N+](=O)[O-])cc1)c1cc(Cl)c2ccccc2c1O [Cpd 3] | 17 |  | EC50 (mouse tracheal rings; [4]): 606 ± 3 nM
14 | N#Cc1c(C(F)(F)F)cc(O)n2c1nc1ccccc12 [1PBC] | 964 ± 756 | 1770 | 

— paper PMC6382696, “Drug Repurposing: The Anthelmintics Niclosamide and Nitazoxanide Are Potent TMEM16A Antagonists That Fully Bronchodilate Airways” (Frontiers in Pharmacology, 2019)
